Assay [1] has as its target Activin receptor-like kinase 1, ACVRL1 (Homo sapiens) (UniProt P37023). Put plainly: Inhibition of ALK1.
Assay [2] deals with Platelet-derived growth factor receptor alpha (Homo sapiens, UniProt P16234). Put plainly: Inhibition of PDGFRalpha.
In assay [3] the target is T1, TGF-beta receptor type-1 (Homo sapiens, UniProt P36897).
T1 sequence (P36897 whole entry): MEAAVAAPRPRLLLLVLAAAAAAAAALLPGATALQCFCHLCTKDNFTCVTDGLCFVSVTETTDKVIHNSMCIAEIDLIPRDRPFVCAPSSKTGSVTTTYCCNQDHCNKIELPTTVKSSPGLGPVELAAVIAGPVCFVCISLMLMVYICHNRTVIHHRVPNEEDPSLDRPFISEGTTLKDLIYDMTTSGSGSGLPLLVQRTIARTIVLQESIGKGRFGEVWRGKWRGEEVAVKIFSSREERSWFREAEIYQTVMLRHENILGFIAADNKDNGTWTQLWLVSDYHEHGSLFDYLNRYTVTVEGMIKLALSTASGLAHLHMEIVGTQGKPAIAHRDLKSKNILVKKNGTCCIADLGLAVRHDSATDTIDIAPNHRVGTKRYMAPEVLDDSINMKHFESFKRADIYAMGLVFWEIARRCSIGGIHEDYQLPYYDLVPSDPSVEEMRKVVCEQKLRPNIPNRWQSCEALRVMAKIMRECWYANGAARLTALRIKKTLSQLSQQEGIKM
Nature of the assay: Inhibition of TGFbeta receptor in human HaCaT cells assessed as Smad phosphorylation by ELISA.

Assay [4] has as its target T1, TGF-beta receptor type-1. Put plainly: Inhibition of TGFbeta receptor.

pEC50, pIC50: −log10 of the molar value.

Sequence of Platelet-derived growth factor receptor alpha (P16234 whole entry): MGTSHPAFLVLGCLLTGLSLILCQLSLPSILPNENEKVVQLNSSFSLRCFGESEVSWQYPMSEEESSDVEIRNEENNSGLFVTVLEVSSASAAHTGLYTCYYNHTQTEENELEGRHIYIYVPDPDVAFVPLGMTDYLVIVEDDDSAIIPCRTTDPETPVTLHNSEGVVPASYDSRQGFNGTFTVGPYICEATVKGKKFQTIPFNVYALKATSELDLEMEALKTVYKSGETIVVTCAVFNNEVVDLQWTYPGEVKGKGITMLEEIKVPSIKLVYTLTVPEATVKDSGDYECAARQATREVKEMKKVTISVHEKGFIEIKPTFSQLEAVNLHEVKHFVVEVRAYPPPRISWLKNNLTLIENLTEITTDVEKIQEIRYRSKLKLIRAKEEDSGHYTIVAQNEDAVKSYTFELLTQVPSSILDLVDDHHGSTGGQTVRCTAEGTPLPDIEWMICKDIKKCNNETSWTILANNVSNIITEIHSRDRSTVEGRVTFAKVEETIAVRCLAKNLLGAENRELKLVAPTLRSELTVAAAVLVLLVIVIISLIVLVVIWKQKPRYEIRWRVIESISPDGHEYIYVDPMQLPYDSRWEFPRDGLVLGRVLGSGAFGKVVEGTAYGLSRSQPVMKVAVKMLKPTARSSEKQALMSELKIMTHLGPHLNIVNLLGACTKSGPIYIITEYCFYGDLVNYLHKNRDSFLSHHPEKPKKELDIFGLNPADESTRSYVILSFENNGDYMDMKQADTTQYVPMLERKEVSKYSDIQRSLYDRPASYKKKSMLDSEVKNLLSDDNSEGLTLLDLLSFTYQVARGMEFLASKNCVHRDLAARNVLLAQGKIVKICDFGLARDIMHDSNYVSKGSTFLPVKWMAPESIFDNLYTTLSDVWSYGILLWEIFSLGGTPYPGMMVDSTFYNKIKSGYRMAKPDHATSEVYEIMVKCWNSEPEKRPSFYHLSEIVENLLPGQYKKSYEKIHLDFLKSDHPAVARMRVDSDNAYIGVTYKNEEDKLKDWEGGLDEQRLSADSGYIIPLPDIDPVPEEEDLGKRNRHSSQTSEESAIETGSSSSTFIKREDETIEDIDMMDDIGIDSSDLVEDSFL
Sequence of Activin receptor-like kinase 1, ACVRL1 (Homo sapiens) (P37023 whole entry, looked up): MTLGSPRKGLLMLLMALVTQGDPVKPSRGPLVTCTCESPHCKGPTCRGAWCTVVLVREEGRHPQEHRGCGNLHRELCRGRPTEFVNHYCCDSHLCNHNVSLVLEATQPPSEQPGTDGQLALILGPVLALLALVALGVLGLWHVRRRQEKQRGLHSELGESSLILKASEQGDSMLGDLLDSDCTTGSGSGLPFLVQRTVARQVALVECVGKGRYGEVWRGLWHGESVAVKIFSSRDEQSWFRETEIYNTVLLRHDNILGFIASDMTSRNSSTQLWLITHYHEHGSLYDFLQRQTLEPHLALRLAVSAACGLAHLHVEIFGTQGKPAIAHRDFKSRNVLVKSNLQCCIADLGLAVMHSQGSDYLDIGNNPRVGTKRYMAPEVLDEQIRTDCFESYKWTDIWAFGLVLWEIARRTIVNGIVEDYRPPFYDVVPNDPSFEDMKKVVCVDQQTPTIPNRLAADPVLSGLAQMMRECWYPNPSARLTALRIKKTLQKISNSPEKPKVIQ

Broadly, the pIC50 is the IC50 on a negative log10 scale, so that one unit is a factor of ten. In turn, `CCN(C)C(=O)c1ccc2c(c1)NC(=O)/C2=C(\Nc1ccc(CN2CCCCC2)cc1)c1ccccc1` showed a pIC50 in assay [1] of 5.40.
Broadly, the pEC50 is −log10 of the EC50, conventionally taken in molar units. For `CCN(C)C(=O)c1ccc2c(c1)NC(=O)C2C(=NC1CCCCC1)c1ccccc1` (configuration not stated) [(Z)-3-((cyclohexylamino)(phenyl)methylene)-N-ethyl-N-methyl-2-oxoindoline-6-carboxamide], the pIC50 in assay [2] was below 5.30; in assay [4] it was below 4.30. Moreover, in assay [3], the pEC50 is below 5.00.
As to `CCN(C)C(=O)c1ccc2c(c1)NC(=O)C2C(=NC1CCN(C)CC1)c1ccccc1` (configuration not stated) [(Z)-N-ethyl-N-methyl-3-((1-methylpiperidin-4-ylamino)(phenyl)methylene)-2-oxoindoline-6-carboxamide], the pIC50 in assay [2] was below 5.30; in assay [4], below 4.30. For the same molecule, the negative logarithm of the EC50 (pEC50) in assay [3] is below 5.00.

For the origin of these results see BindingDB's records for doi:10.1021/jm100812a (Boehringer Ingelheim Pharma, 2010).
